According to ChEMBL document CHEMBL3627712, “Synthesis and initial evaluation of quinoline-based inhibitors of the SH2-containing inositol 5'-phosphatase (SHIP)” (Bioorg Med Chem Lett, 2015):

Columns and labels:
[1] = target: T1, Phosphatidylinositol 3,4,5-trisphosphate 5-phosphatase 1 (Homo sapiens) (UniProt Q92835); test: Inhibition of recombinant human truncated SHIP1 using PI(3,4,5)P3diC8 at 500 uM after 30 mins by malachite green phosphatase release assay
T1 sequence (whole entry): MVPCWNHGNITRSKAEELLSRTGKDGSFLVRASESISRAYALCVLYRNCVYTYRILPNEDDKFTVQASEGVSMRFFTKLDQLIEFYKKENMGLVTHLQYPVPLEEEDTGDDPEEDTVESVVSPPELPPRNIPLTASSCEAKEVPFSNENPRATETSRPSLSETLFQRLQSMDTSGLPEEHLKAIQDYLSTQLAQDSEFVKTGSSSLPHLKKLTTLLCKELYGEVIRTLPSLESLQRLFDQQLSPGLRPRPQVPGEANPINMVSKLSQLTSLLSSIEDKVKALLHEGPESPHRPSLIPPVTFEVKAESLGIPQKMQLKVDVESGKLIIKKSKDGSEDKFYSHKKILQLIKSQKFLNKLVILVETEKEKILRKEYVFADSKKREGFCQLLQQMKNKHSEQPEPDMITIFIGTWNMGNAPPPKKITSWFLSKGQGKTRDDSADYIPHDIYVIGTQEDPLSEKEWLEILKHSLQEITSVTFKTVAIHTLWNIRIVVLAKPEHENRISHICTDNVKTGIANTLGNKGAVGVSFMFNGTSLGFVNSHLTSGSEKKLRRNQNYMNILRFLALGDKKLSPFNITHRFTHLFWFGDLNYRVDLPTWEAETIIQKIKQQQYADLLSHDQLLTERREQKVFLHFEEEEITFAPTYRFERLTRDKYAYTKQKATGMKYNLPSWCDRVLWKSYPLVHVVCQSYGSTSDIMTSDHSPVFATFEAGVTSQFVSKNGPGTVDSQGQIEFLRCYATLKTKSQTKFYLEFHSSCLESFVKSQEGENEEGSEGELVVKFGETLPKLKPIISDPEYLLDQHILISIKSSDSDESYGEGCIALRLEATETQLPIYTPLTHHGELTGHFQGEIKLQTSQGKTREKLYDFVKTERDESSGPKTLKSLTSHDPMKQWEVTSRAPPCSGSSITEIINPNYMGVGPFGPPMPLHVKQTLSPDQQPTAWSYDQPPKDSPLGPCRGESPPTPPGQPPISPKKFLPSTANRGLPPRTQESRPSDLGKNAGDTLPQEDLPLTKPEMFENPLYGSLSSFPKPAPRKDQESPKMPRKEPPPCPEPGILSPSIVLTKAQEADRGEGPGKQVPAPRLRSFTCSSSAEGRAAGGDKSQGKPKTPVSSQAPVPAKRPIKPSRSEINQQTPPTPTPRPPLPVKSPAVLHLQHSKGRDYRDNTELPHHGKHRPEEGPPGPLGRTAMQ

[2] = target: T2, Phosphatidylinositol 3,4,5-trisphosphate 5-phosphatase 2 (Homo sapiens) (UniProt O15357); test: Inhibition of recombinant human truncated SHIP2 using PI(3,4,5)P3diC8 at 500 uM after 30 mins by malachite green phosphatase release assay
T2 sequence (whole entry): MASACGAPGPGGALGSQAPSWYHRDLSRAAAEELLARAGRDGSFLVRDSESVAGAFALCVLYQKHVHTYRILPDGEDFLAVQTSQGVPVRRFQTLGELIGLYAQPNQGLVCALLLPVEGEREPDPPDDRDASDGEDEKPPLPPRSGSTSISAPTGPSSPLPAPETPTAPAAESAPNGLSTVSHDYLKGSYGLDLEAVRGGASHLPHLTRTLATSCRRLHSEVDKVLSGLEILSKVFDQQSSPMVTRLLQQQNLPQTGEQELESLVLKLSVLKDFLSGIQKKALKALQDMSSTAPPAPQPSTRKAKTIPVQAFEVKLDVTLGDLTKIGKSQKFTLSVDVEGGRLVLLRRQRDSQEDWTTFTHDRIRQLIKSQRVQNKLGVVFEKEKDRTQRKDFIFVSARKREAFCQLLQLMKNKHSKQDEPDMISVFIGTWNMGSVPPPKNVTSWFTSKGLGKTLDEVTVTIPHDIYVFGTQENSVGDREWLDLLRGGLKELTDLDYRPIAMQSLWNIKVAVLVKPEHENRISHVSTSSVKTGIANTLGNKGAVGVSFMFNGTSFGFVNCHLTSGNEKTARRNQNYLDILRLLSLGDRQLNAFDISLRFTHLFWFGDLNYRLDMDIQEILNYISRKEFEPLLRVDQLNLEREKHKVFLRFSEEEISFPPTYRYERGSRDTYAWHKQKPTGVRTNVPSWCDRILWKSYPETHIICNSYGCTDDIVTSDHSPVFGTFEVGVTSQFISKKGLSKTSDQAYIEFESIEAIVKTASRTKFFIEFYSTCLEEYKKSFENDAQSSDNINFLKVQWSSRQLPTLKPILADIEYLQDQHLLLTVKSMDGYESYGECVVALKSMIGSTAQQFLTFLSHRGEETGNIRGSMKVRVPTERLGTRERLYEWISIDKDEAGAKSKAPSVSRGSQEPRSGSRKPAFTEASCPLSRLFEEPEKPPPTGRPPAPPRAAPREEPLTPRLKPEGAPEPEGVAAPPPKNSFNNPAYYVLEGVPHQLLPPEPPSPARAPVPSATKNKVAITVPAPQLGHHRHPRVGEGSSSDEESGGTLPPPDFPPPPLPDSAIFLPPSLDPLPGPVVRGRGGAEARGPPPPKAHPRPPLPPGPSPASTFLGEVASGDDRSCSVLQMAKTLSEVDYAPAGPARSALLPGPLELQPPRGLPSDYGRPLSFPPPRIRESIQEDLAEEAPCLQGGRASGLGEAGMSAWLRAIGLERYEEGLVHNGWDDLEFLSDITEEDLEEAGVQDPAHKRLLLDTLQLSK

[3] = target: T2, Phosphatidylinositol 3,4,5-trisphosphate 5-phosphatase 2 (Homo sapiens); test: Inhibition of recombinant human truncated SHIP2 using PI(3,4,5)P3diC8 at 1 mM after 30 mins by malachite green phosphatase release assay
[4] = target: T1, Phosphatidylinositol 3,4,5-trisphosphate 5-phosphatase 1 (Homo sapiens); test: Inhibition of recombinant human truncated SHIP1 using PI(3,4,5)P3diC8 at 1 mM after 30 mins by malachite green phosphatase release assay

Compound	inhibition [1] [%]	inhibition [2] [%]	inhibition [3] [%]	inhibition [4] [%]
O=C(O)c1cc(C23CC4CC(CC(C4)C2)C3)nc2c(Cl)cc(Cl)cc12	44	0	–	–
OCc1cc(C23CC4CC(CC(C4)C2)C3)nc2c(Cl)cc(Cl)cc12	0	14	–	–
OC(c1cc(C(F)(F)F)nc2c(C(F)(F)F)cccc12)C1CCCCN1 (centres undefined)	–	–	54	54
CN[C@@H](C)[C@@H](O)c1ccccc1	–	–	13	2
OC(c1cc(C23CC4CC(CC(C4)C2)C3)nc2c(Cl)cc(Cl)cc12)C1CCCCN1 (centres undefined)	–	–	73	38
OC(c1cc(-c2ccccc2)nc2c1ccc1ccccc12)C1CCCCN1 (centres undefined)	–	–	17	38
O=C(O)c1cc(-c2ccccc2)nc2c1ccc1ccccc12	7	0	–	–
C=C[C@H]1CN2CC[C@H]1C[C@@H]2[C@@H](O)c1ccnc2ccc(OC)cc12	–	–	5	19
CN[C@@H](C)[C@H](O)c1ccccc1	–	–	0	0
NCc1cc(-c2ccccc2)nc2c1ccc1ccccc12	–	–	66	41
C=C[C@H]1CN2CC[C@H]1C[C@H]2[C@H](O)c1ccnc2ccc(OC)cc12	–	–	8	0
OCc1cc(-c2ccccc2)nc2c1ccc1ccccc12	2	18	–	–
